How the values were obtained:
Hepatotoxicity [1] = tested on: Hepatotoxicity;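 for HepSE Combined Scores: combined hepatic side effect score as listed in the training data of the Drug Induced Liver Injury Prediction System (DILIps)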;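 for HepSE cholecystitis: Cholecystitis-related hepatic side effect score drawn from the DILIps (drug-induced liver injury prediction) training data set; call rule not given here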;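 for HepSE hepatitis: Hepatitis-related hepatic side effect score taken from the training data of DILIps, a prediction system for drug-induced liver injury; call rule not given here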;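 for HepSE hepatomegaly: hepatic side effect score for hepatomegaly, taken from the training set of the DILIps drug-induced liver injury prediction system; call rule not given here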;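 for HepSE jaundice: Jaundice-related hepatic side-effect score drawn from the training data of the DILIps (drug-induced liver injury prediction system); call rule not given here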;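 for HepSE liver fatty: hepatic side effect score for fatty liver, taken from the DILIps training set for predicting drug-induced liver injury; call rule not given here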
Hepatotoxicity [2] = tested on: Hepatotoxicity; remark: listed apart in the source;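 for HepSE Combined Scores: combined hepatic side effect score as listed in the training data of the Drug Induced Liver Injury Prediction System (DILIps)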;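 for HepSE cholecystitis: Cholecystitis-related hepatic side effect score drawn from the DILIps (drug-induced liver injury prediction) training data set; call rule not given here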;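 for HepSE hepatitis: Hepatitis-related hepatic side effect score taken from the training data of DILIps, a prediction system for drug-induced liver injury; call rule not given here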;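 for HepSE hepatomegaly: hepatic side effect score for hepatomegaly, taken from the training set of the DILIps drug-induced liver injury prediction system; call rule not given here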;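 for HepSE jaundice: Jaundice-related hepatic side-effect score drawn from the training data of the DILIps (drug-induced liver injury prediction system); call rule not given here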;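 for HepSE liver fatty: hepatic side effect score for fatty liver, taken from the DILIps training set for predicting drug-induced liver injury; call rule not given here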
Hepatotoxicity [3] = tested on: Hepatotoxicity; remark: listed apart in the source;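 for HepSE Combined Scores: combined hepatic side effect score as listed in the training data of the Drug Induced Liver Injury Prediction System (DILIps)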;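 for HepSE cholecystitis: Cholecystitis-related hepatic side effect score drawn from the DILIps (drug-induced liver injury prediction) training data set; call rule not given here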;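 for HepSE hepatitis: Hepatitis-related hepatic side effect score taken from the training data of DILIps, a prediction system for drug-induced liver injury; call rule not given here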;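 for HepSE hepatomegaly: hepatic side effect score for hepatomegaly, taken from the training set of the DILIps drug-induced liver injury prediction system; call rule not given here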;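 for HepSE jaundice: Jaundice-related hepatic side-effect score drawn from the training data of the DILIps (drug-induced liver injury prediction system); call rule not given here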;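 for HepSE liver fatty: hepatic side effect score for fatty liver, taken from the DILIps training set for predicting drug-induced liver injury; call rule not given here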
Hepatotoxicity [4] = tested on: Hepatotoxicity; remark: listed apart in the source;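 for HepSE Combined Scores: combined hepatic side effect score as listed in the training data of the Drug Induced Liver Injury Prediction System (DILIps)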;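 for HepSE cholecystitis: Cholecystitis-related hepatic side effect score drawn from the DILIps (drug-induced liver injury prediction) training data set; call rule not given here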;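 for HepSE hepatitis: Hepatitis-related hepatic side effect score taken from the training data of DILIps, a prediction system for drug-induced liver injury; call rule not given here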;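 for HepSE hepatomegaly: hepatic side effect score for hepatomegaly, taken from the training set of the DILIps drug-induced liver injury prediction system; call rule not given here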;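 for HepSE jaundice: Jaundice-related hepatic side-effect score drawn from the training data of the DILIps (drug-induced liver injury prediction system); call rule not given here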;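 for HepSE liver fatty: hepatic side effect score for fatty liver, taken from the DILIps training set for predicting drug-induced liver injury; call rule not given here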
Hepatotoxicity [5] = tested on: Hepatotoxicity; remark: listed apart in the source
Hepatotoxicity [6] = tested on: Hepatotoxicity; remark: listed apart in the source
Hepatotoxicity [7] = tested on: Hepatotoxicity; remark: listed apart in the source
Hepatotoxicity [8] = tested on: Hepatotoxicity; remark: listed apart in the source
Hepatotoxicity [9] = tested on: Hepatotoxicity; remark: listed apart in the source
Hepatotoxicity [10] = tested on: Hepatotoxicity; remark: listed apart in the source
Hepatotoxicity [11] = tested on: Hepatotoxicity; remark: listed apart in the source
Hepatotoxicity [12] = tested on: Hepatotoxicity; remark: listed apart in the source
Hepatotoxicity [13] = tested on: Hepatotoxicity; remark: listed apart in the source
Hepatotoxicity [14] = tested on: Hepatotoxicity; remark: listed apart in the source

Row | SMILES | HepSE_jaundice (Hepatotoxicity [1]) | HepSE_hepatomegaly (Hepatotoxicity [2]) | HepSE_hepatitis (Hepatotoxicity [3]) | HepSE_liver fatty (Hepatotoxicity [4]) | HepSE_bilirubinemia (Hepatotoxicity [5]) | HepSE_Combined Scores (Hepatotoxicity [6]) | HepSE_cholecystitis (Hepatotoxicity [7]) | HepSE_elevated liver function tests (Hepatotoxicity [8]) | HepSE_liver disease (Hepatotoxicity [9]) | HepSE_cholelithiasis (Hepatotoxicity [10]) | HepSE_cirrhosis (Hepatotoxicity [11]) | HepSE_hepatic necrosis (Hepatotoxicity [12]) | HepSE_hepatic failure (Hepatotoxicity [13]) | HepSE_liver function tests abnormal (Hepatotoxicity [14]) | also measured
1 | CCOc1nc2cccc(C(=O)O)c2n1Cc1ccc(-c2ccccc2-c2nnn[nH]2)cc1 | 0 | 0 | 1 | 0 | 0 | 2 | 0 | 0 | 0 | 1 | 0 | 0 | 0 | 0 | –
2 | CCCc1nc2c(C)cc(-c3nc4ccccc4n3C)cc2n1Cc1ccc(-c2ccccc2C(=O)O)cc1 | 0 | 0 | 0 | 0 | 0 | 1 | 0 | 0 | 1 | 0 | 0 | 0 | 0 | 0 | –
3 | CCCCC(=O)N(Cc1ccc(-c2ccccc2-c2nnn[nH]2)cc1)[C@H](C(=O)O)C(C)C | 0 | 0 | 1 | 0 | 0 | 1 | 0 | 0 | 0 | 0 | 0 | 0 | 0 | 0 | –
4 | FC(F)OC(F)C(F)(F)F (centres undefined) | 0 | 0 | 1 | 0 | 0 | 2 | 0 | 0 | 0 | 0 | 0 | 0 | 1 | 0 | –
5 | CC(=O)N[C@H]1[C@H](OCCCO)OC(C(=O)O)=C[C@@H]1O | 0 | 0 | 0 | 0 | 0 | 0 | 0 | 0 | 0 | 0 | 0 | 0 | 0 | 0 | –
6 | CCCCc1nc(N)[se]c1CCC | 0 | 0 | 0 | 0 | 0 | 0 | 0 | 0 | 0 | 0 | 0 | 0 | 0 | 0 | –
7 | FC(F)OC(F)(F)C(F)Cl (centres undefined) | 0 | 0 | 0 | 0 | 0 | 2 | 0 | 0 | 0 | 0 | 0 | 1 | 1 | 0 | –
8 | COc1ccc(-c2ccc3cc(C(=O)O)ccc3c2)cc1C12CC3CC(CC(C3)C1)C2 | 0 | 0 | 1 | 0 | 0 | 1 | 0 | 0 | 0 | 0 | 0 | 0 | 0 | 0 | –
9 | CNS(=O)(=O)Cc1ccc2[nH]cc(CCN(C)C)c2c1 | 0 | 0 | 0 | 0 | 0 | 2 | 0 | 1 | 0 | 0 | 0 | 0 | 0 | 1 | –
10 | C[C@@H](O)[C@H]1C(=O)N2C(C(=O)O)=C(S[C@@H]3CN[C@H](C(=O)Nc4cccc(C(=O)O)c4)C3)[C@H](C)[C@H]12 | 1 | 0 | 0 | 0 | 0 | 4 | 1 | 0 | 1 | 1 | 0 | 0 | 0 | 0 | –
11 | CC1=C(CC(=O)O)c2cc(F)ccc2/C1=C\c1ccc([S+](C)[O-])cc1 (centres undefined) | 1 | 0 | 1 | 0 | 0 | 4 | 1 | 0 | 0 | 0 | 0 | 0 | 1 | 0 | –
12 | CCCCC[C@](C)(O)/C=C/[C@@H]1[C@@H](C/C=C/CCCC(=O)O)[C@@H](O)C[C@H]1O | 0 | 0 | 0 | 0 | 0 | 0 | 0 | 0 | 0 | 0 | 0 | 0 | 0 | 0 | –
13 | CCCc1nn(C)c2c(=O)[nH]c(-c3cc(S(=O)(=O)N4CCN(C)CC4)ccc3OCC)nc12 | 0 | 0 | 0 | 0 | 0 | 1 | 0 | 0 | 0 | 0 | 0 | 0 | 0 | 1 | –
14 | CCC[C@@]1(CCc2ccccc2)CC(O)=C([C@H](CC)c2cccc(NS(=O)(=O)c3ccc(C(F)(F)F)cn3)c2)C(=O)O1 | 1 | 0 | 1 | 1 | 1 | 6 | 0 | 0 | 0 | 0 | 0 | 0 | 1 | 1 | –
15 | CCOC(=O)[C@H](CCc1ccccc1)N[C@@H](C)C(=O)N1CCC[C@H]1C(=O)O | 1 | 0 | 1 | 0 | 0 | 3 | 0 | 0 | 0 | 0 | 0 | 0 | 1 | 0 | –
16 | Nc1nc(N)c2nc(-c3ccccc3)c(N)nc2n1 | 1 | 0 | 0 | 0 | 0 | 1 | 0 | 0 | 0 | 0 | 0 | 0 | 0 | 0 | –
17 | CN1C(C(=O)Nc2ccccn2)=C(O)c2ccccc2S1(=O)=O [PIROXICAM] | 1 | 0 | – | 0 | 0 | 3 | 0 | 0 | 0 | 0 | 0 | 0 | 1 | 0 | –
18 | Nc1ccc(S(N)(=O)=O)cc1 [SULFANILAMIDE] | – | – | – | – | – | – | – | – | – | – | – | – | – | – | HepSE_jaundice (Hepatotoxicity [1]; Liver): 0; HepSE_hepatomegaly (Hepatotoxicity [2]; Liver): 0; HepSE_hepatitis (Hepatotoxicity [3]; Liver): 0; HepSE_liver fatty (Hepatotoxicity [4]; Liver): 0; HepSE_bilirubinemia (Hepatotoxicity [5]; Liver): 0; HepSE_Combined Scores (Hepatotoxicity [6]; Liver): 0; HepSE_cholecystitis (Hepatotoxicity [7]; Liver): 0; HepSE_liver disease (Hepatotoxicity [9]; Liver): 0; HepSE_cholelithiasis (Hepatotoxicity [10]; Liver): 0; HepSE_cirrhosis (Hepatotoxicity [11]; Liver): 0; HepSE_hepatic necrosis (Hepatotoxicity [12]; Liver): 0; HepSE_hepatic failure (Hepatotoxicity [13]; Liver): 0

— ChEMBL document CHEMBL1909294, “Translating clinical findings into knowledge in drug safety evaluation--drug induced liver injury prediction system (DILIps)” (PLoS Comput Biol, 2011)
